Results taken from paper PMC4669708 (Cell Death & Disease, 2015).

Tests used:
[1] = molecular target: ABL2 (Homo sapiens, UniProt P42684); assay: c-ponatinib pulldown LC-MS/MS; type: binding
Method: (§1) Drug-affinity matrices were prepared as described previously.[51] In brief, 25 nmol of c-ponatinib were immobilized on 50 μl NHS-activated Sepharose 4 Fast Flow beads (GE Healthcare Bio-Sciences AB, Uppsala, Sweden). 10 mg whole cell lysate was used as protein input per replicate. Affinity chromatography and elution were performed in duplicate. After elution, the enriched proteins were reduced with dithiothreitol (DTT) and cysteine residues were alkylated by incubation with iodoacetamide. The samples were digested with modified porcine trypsin (Promega). Five percent of the digested eluates were purified and concentrated by C18 reversed-phase material. Subsequently, samples were analyzed in duplicates by gel-free one-dimensional LCMS.
(§2) Precursor and MS/MS peaks were extracted from the RAW files and saved in the MGF format using msconvert tool (ProteoWizard Library v2.1.2708, www.proteowizard.sourceforge.net) for subsequent protein identification. An initial database search was performed with broader mass tolerance and conservative score threshold to re-calibrate the mass lists for optimal final protein identification. For the initial protein database search, Mascot (www.matrixscience.com, v2.3.02) was used. Error tolerances on the precursor and fragment ions were ±10 p.p.m. and ±0.6 Da, respectively, and the database search limited to fully-tryptic peptides with maximum one missed cleavage, carbamidomethyl cysteine and methionine oxidation set as fixed and variable modifications, respectively. The Mascot peptide ion score threshold was set to 30, and at least three peptide identifications per protein were required. Searches were performed against the human UniProtKB/SwissProt database (www.uniprot.org release 2013.01) including all protein isoforms. The initial peptide identifications were used to deduce independent linear transformations for precursor and fragment masses that would minimize the mean square deviation of measured masses from theoretical. Re-calibrated mass list files were searched against the same human protein database by a combination of Mascot and Phenyx (GeneBio SA, Geneva, Switzerland; version 2.5.14) search engines using narrower mass tolerances (±4 p.p.m. and ±0.3 Da). One missed tryptic cleavage site was allowed. Carbamidomethyl cysteine was set as a fixed modification and oxidized methionine was set as a variable modification. To validate the proteins, Mascot and Phenyx output files were processed by internally developed parsers. Proteins with ≥2 unique peptides above a score T1, or with a single peptide above a score T2 were selected as unambiguous identifications. Additional peptides for these validated proteins with score >T3 were also accepted. For Mascot searches, the following thresholds were used: T1=14, T2=40 and T3=10; Phenyx thresholds were set to 4.2, 4.75 and 3.5, respectively (P-value<10^−3). The validated proteins retrieved by the two algorithms were merged, any spectral conflicts discarded and grouped according to shared peptides. A false discovery rate of <1% for protein identifications and <0.1% for peptides (including the ones exported with lower scores) was determined by applying the same procedure against a database of reversed protein sequences. […] In addition to Mascot protein scores that were proposed as an estimate of protein abundance by the original algorithm, the modified version also included Phenyx protein scores and spectral counts. The algorithm first estimated three measure-specific P-values for each putative interaction, and, in contrast to,[69] P-value calculation utilized the quantiles of the measurements rather than the original data. The Fisher's method was used to combine the three resulting P-values into a single P-value for drug–protein interaction specificity. We have also correlated interaction P-values with the magnitude of competition effect represented by the fold reduction of spectral counts on free compound competition. […]

[2] = molecular target: MAP4K1 (Homo sapiens, UniProt Q92918); assay: c-ponatinib pulldown LC-MS/MS; type: binding
Chain of MAP4K1 (Q92918 whole entry): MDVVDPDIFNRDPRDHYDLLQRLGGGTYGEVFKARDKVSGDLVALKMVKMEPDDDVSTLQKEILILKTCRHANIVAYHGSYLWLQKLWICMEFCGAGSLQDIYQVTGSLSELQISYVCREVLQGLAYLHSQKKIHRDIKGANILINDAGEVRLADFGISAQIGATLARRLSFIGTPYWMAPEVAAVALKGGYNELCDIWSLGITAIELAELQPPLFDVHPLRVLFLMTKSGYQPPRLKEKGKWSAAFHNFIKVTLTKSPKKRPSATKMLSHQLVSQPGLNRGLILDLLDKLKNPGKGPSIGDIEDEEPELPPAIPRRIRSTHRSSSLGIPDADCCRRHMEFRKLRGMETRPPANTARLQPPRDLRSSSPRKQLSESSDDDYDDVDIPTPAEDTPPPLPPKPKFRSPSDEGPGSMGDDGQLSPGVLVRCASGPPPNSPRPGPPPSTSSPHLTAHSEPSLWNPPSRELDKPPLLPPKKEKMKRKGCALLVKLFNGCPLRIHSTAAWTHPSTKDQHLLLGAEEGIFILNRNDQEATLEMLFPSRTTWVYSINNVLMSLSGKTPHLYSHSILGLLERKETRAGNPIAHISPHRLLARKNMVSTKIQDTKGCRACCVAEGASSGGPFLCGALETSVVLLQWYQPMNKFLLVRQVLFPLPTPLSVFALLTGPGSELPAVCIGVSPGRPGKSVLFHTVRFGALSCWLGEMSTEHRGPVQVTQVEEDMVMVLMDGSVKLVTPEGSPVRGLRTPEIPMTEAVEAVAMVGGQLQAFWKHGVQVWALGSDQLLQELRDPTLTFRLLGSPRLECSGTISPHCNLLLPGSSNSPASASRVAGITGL
Method: as §1, §2

[3] = molecular target: ZAK (Homo sapiens, UniProt Q9NYL2); assay: c-ponatinib pulldown LC-MS/MS; type: binding
Chain of ZAK (Q9NYL2 whole entry): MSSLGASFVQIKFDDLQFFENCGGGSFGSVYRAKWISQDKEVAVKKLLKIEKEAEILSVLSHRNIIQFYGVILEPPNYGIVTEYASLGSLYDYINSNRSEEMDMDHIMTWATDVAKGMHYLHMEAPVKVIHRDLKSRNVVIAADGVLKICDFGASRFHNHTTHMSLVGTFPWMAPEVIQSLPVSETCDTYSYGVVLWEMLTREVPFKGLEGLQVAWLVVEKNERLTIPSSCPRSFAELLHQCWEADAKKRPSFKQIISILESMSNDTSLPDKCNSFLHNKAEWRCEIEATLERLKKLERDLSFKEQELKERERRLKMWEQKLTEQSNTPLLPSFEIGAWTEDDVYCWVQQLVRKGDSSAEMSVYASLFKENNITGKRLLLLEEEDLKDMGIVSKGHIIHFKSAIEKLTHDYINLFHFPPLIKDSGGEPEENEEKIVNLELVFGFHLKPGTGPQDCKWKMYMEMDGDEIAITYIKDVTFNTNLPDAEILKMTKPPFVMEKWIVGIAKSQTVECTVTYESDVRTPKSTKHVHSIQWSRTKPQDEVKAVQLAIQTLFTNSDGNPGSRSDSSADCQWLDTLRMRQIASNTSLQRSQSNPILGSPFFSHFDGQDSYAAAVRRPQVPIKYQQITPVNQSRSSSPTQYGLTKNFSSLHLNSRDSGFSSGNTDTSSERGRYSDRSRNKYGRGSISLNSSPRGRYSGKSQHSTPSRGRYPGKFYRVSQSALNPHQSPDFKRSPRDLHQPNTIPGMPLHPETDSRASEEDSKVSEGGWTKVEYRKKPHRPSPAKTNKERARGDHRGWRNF
Method: as §1, §2

[4] = test system: FADD-deficient Jurkat cells; assay: Drug toxicity, cell viability without TNF-α; type: cell-based; settings: Homo sapiens, 24 h, no TNF-α, CellTiter Glo
Method: (§3) Cells were seeded in 12-, 24- or 96-well plates at proper cell density. For necroptosis or apoptosis assays, cells were incubated with the indicated compound combinations at concentrations stated for 14–24 h. Smac mimetic and z-VAD-FMK were added 30–60 min before treatment with TNF-α, FasL or TRAIL. Cell viability was determined using CellTiter Glo Luminescent Cell Viability Assay (Promega, Fitchburg, WI, USA) according to the manufacturer's instructions. Luminescence was recorded with a SpectraMax M5Multimode plate reader (Molecular Devices, Sunnyvale, CA, USA). For flow cytometry-based determination of viability, cells were harvested, collected by centrifugation, washed once and resuspended in staining buffer (1 × PBS, 10% FBS). Cells were incubated with 0.5 μg/ml PI for 10 min at room temperature (RT) in the dark. Flow cytometric analyses were performed on an LSR Fortessa (BD Biosciences) and analyzed with FlowJo software version 7.6.3 (Tree Star Inc, Ashland, OR, USA). Cell size was evaluated by forward scatter. PI-negative normal-sized cells were considered living and data were normalized to values of untreated controls. For detection of apoptosis, cells were resuspended in Annexin V Binding Buffer (BioLegend, San Diego, CA, USA) and stained with 0.5 μg/ml PI and Alexa Fluor 647 Annexin V (BioLegend) according to manufacturer's instructions.

[5] = test system: HT-29 cells; assay: TNF-α/Smac mimetic/z-VAD-FMK (TSZ)-induced necroptosis, cell viability; type: cell-based, human; settings: Homo sapiens, HT-29; TSZ treatment; read-out: EC50 (necroptosis block)
Method: as §3, with “controls.” for “controls. For detection of apoptosis, cells were resuspended in Annexin V Binding Buffer (BioLegend, San Diego, CA, USA) and stained with 0.5 μg/ml PI and Alexa Fluor 647 Annexin V (BioLegend) according to manufacturer's instructions.”

Chain of ABL2 (P42684 whole entry): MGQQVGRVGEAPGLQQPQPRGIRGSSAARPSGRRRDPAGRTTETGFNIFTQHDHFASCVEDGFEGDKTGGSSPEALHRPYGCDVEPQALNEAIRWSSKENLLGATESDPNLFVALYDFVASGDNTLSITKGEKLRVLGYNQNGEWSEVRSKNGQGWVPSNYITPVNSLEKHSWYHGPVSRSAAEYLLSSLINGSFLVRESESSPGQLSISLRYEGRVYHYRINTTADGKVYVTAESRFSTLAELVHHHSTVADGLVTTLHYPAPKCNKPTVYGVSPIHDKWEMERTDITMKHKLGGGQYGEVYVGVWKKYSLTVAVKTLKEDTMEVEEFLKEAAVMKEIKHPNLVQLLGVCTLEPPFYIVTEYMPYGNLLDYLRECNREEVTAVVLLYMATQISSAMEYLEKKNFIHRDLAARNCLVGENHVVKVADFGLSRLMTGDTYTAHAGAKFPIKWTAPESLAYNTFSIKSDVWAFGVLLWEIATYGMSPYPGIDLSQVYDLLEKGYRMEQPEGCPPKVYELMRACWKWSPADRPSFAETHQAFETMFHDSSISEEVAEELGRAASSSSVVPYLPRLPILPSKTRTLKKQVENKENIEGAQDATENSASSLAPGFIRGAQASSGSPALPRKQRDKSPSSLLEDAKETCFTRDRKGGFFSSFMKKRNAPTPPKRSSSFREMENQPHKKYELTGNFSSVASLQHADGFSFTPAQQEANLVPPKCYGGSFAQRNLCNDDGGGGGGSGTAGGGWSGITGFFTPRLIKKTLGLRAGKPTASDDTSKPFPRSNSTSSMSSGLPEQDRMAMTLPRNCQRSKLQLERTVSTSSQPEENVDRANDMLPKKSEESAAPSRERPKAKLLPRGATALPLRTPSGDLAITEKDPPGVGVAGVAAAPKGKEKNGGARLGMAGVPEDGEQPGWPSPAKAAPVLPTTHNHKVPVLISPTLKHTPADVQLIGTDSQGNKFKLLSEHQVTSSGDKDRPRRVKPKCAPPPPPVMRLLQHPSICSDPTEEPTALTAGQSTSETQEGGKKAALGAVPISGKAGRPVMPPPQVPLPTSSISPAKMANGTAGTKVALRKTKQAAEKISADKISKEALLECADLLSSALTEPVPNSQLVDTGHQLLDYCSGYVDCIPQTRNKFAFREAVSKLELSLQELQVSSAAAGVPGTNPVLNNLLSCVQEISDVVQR

Row | SMILES | Av. SC comp. ([1]; + free ponatinib) | Total SC comp. ([1]; + free ponatinib) | Av. SC ([1]; no competitor) | Total SC ([1]; no competitor) | Av. SC comp. ([2]; + free ponatinib) | Total SC comp. ([2]; + free ponatinib) | Av. SC ([2]; no competitor) | Total SC ([2]; no competitor) | Av. SC comp. ([3]; + free ponatinib) | Total SC comp. ([3]; + free ponatinib) | Av. SC ([3]; no competitor) | Total SC ([3]; no competitor) | IC50 [4] [nM] | EC50 [5] [nM]
1 | Cc1ccc(C(=O)Nc2ccc(CN3CCN(CCCN)CC3)c(C(F)(F)F)c2)cc1C#Cc1cnc2cccnn12 [c-ponatinib] | 0 | 0 | 17.25 | 69 | 2.5 | 10 | 46.75 | 187 | 0 | 0 | 65.25 | 261 | – | –
2 | Cc1ccc(C(=O)Nc2ccc(CN3CCN(C)CC3)c(C(F)(F)F)c2)cc1C#Cc1cnc2cccnn12 [ponatinib, Ponatinib] | – | – | – | – | – | – | – | – | – | – | – | – | 1600 | 50
